Experimental data taken from US6730503B1 (Roche Vitamins Inc., priority 1996, dated 2004).
Read-outs that look alike come from different tables or passages of the source.

B1: Gluconobacter oxydans DSM No. 4025 alcohol/aldehyde dehydrogenase Enzyme A, wild type, SEQ ID NO: 5 (Ketogulonicigenium vulgare WSH-001) (protein)
chain: QVTPVTDELLANPPAGEWISYGQNQENYRHSPLTQITTENVGQLQLVWARGMQPGKVQVTPLIHDGVMYLANPGDVIQAIDAKTGDLIWEHRRQLPNIATLNSFGEPTRGMALYGTNVYFVSWDNHLVALDTATGQVTFDVDRGQGEDMVSNSSGPIVANGVIVAGSTCQYSPFGCFVSGHDSATGEELWRNYFIPRAGEEGDETWGNDYEARWMTGAWGQITYDPVTNLVHYGSTAVGPASETQRGTPGGTLYGTNTRFAVRPDTGEIVWRHQTLPRDNWDQECTFEMMVTNVDVQPSTEMEGLQSINPNAATGERRVLTGVPCKTGTMWQFDAETGEFLWARDTNYQNMIESIDENGIVTVNEDAILKELDVEYDVCPTFLGGRDWPSAALNPDSGIYFIPLNNVCYDMMAVDQEFTSMDVYNTSNVTKLPPGKDMIGRIDAIDISTGRTLWSVERAAANYSPVLSTGGGVLFNGGTDRYFRALSQETGETLWQTRLATVASGQAISYEVDGMQYVAIAGGGVSYGSGLNSALAGERVDSTAIGNAVYVFALPQ

What was measured:
[1] = tested on: Enzyme A; experiment: Effect of metals and inhibitors on enzyme activity, PMS-DCIP assay; type: biochemical, G. oxydans DSM No. 4025
[2] = tested on: Enzyme A′; experiment: as above; type: biochemical, G. oxydans DSM No. 4025
[3] = tested on: Enzyme B; experiment: as above; type: biochemical, G. oxydans DSM No. 4025
[4] = tested on: Enzyme A″; experiment: as above; type: biochemical, G. oxydans DSM No. 4025
[5] = tested on: Gluconobacter oxydans DSM No. 4025 AADH chimera Enzyme sA2 (Enzyme A residues 1-135, Enzyme B residues 136-180, Enzyme A residues 180-556; parents SEQ ID NO: …); experiment: Kinetic properties of chimera Enzyme sA2; type: biochemical; conditions: read-out: Km (glucose)
Description: (§1) To further improve the chimeras, Enzyme A/B21, Enzyme A/B22, Enzyme A/B25 and Enzyme A/B31 in the view point of the preferable codon usage, the C-terminal two thirds consisting of Enzyme B residues were replaced with the C-terminal two thirds consisting of Enzyme A residues. Enzyme A/B21, Enzyme A/B22, Enzyme A/B25 and Enzyme A/B31 genes were used for constructing new chimera genes of Enzyme sA21 (Enzyme A ammo acid residue Nos. 1-128, Enzyme B amino acid residue Nos. 129-180 and Enzyme A amino acid residue Nos. 180-556), Enzyme sA22 (Enzyme A amino acid residue Nos. 1-125, Enzyme B amino acid residue Nos. 126-180 and Enzyme A amino acid residue Nos. 180-556), Enzyme sA2 (Enzyme A amino acid residue Nos. 1-135, Enzyme B amino acid residue Nos. 136-180 and Enzyme A amino acid residue Nos. 180-556) and Enzyme sB (Enzyme A amino acid residue Nos. 1-95, Enzyme B amino acid residue Nos. 96-180 and Enzyme A amino acid residue Nos. 180-556) (FIG. 4). […]

[6] = molecular target: T1, Gluconobacter oxydans DSM No. 4025 alcohol/aldehyde dehydrogenase Enzyme A′, SEQ ID NO: 6 (Ketogulonicigenium vulgare, UniProt F9Y5Q6); experiment: Effect of inhibitors on activity of Enzyme A′ (PMS-DCIP assay, substrate n-propanol); type: biochemical; conditions: 10 mM inhibitor, 30 minutes at 25° C., pH 7.5, relative to blank incubation
T1 construct: 579 aa precursor with 23 aa signal peptide; PMS-DCIP assay with n-propanol
T1 sequence (F9Y5Q6 with tags, fused parts or gaps): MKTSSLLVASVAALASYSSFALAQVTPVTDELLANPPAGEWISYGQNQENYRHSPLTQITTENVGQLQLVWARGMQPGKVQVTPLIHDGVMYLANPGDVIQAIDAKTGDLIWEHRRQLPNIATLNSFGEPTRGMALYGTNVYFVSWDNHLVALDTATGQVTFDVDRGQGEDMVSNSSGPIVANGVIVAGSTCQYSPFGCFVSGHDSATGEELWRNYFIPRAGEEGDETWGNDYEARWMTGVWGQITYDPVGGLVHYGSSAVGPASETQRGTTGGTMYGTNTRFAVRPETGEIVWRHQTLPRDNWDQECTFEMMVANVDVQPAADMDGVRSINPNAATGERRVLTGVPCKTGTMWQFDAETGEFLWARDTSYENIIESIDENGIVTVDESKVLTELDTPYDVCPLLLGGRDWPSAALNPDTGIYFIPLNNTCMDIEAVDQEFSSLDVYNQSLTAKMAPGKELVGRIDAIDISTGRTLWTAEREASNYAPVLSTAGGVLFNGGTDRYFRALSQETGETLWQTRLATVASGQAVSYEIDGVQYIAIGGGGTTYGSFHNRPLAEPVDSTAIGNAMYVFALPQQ
Description: (§2) The enzymatic activity of the AADHs herein can be determined by methods known in the art, such as by photometric analysis using a spectrophotometer. In accordance with the present invention, one unit of enzyme activity was defined as the amount of enzyme which catalyzed the reduction of 1 μmole of DCIP per minute. The extinction coefficient of DCIP at pH 8.0 was taken as 15 mM^−1. […] A second cuvette, i.e., a reference cuvette, contains all the above components except the substrate. The reference cuvette is used to standardize the background absorbance resulting from a substrate-independent (endogenous) reaction.
(§3) Enzyme activities of each clone (cell free extract, soluble fraction and membrane fraction) were measured by photometric analysis. The cells of each clone were inoculated in 5 ml of MB medium in a test tube and cultivated at 30° C. for 24 hours. The resulting broth was transferred into 200 ml of fresh MB medium in 500 ml flask and the flask was shaken on the rotary flask shaker at 30° C. for 24 hours. […] Substrate-dependent decreasing rate of absorbance of DCIP at 600 nm was measured at 25° C. by using a Kontron spectrophotometer UVIKON 810.
(§4) The enzyme (about 0.05 mg/ml) in 25 mM HEPES buffer, pH 7.5, containing 5% sucrose was incubated with metal or inhibitor for 30 minutes at 25° C. […] Remaining activity is expressed as relative activity against blank incubation.

[7] = molecular target: T2, Gluconobacter oxydans DSM No. 4025 alcohol/aldehyde dehydrogenase Enzyme B, SEQ ID NO: 8 (Ketogulonicigenium vulgare, UniProt F9Y8N6); experiment: Effect of inhibitors on activity of Enzyme B (PMS-DCIP assay, substrate D-sorbitol); type: biochemical; conditions: 10 mM inhibitor, 30 minutes at 25° C., pH 7.5, relative to blank incubation
T2 construct: 579 aa precursor with 23 aa signal peptide; PMS-DCIP assay with D-sorbitol
T2 sequence (F9Y8N6 24-579): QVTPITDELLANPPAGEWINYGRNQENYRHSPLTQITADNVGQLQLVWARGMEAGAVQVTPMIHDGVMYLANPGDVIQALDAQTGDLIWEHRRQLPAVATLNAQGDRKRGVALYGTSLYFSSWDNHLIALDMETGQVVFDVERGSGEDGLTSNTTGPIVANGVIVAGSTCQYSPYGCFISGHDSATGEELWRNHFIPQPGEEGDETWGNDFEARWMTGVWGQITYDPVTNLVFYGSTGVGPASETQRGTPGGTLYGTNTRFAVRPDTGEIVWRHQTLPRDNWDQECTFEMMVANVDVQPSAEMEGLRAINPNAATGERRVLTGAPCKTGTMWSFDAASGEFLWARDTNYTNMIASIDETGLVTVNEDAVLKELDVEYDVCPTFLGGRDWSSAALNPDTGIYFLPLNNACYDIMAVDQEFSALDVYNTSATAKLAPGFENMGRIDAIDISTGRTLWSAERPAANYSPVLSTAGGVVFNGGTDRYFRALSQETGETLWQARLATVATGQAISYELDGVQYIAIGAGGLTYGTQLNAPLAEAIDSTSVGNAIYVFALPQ
Description: as §2, §3, §4

[8] = molecular target: T3, Gluconobacter oxydans DSM No. 4025 alcohol/aldehyde dehydrogenase Enzyme B, wild type, SEQ ID NO: 8 (Ketogulonicigenium vulgare, UniProt F9Y8N6); experiment: Kinetic properties of Enzyme B; type: biochemical
T3 construct: 579 aa precursor with 23 aa signal peptide
T3 sequence (F9Y8N6 24-579): T2 sequence (F9Y8N6 24-579)
Description: Tables 11 and 12 summarizes the kinetic properties of chimera enzymes, Enzyme sA2 and Enzyme sB in comparison with Enzyme A and Enzyme B, respectively.

[9] = tested on: Gluconobacter oxydans DSM No. 4025 AADH chimera Enzyme sB (Enzyme A residues 1-95, Enzyme B residues 96-180, Enzyme A residues 180-556; parents SEQ ID NO: …); experiment: Kinetic properties of chimera Enzyme sB; type: biochemical; conditions: read-out: Km (sorbitol)
Description: as §1

[10] = substrate: OCC1(O)OC[C@H](O)[C@@H](O)[C@@H]1O; experiment: purified protein, by the assay type; conditions: other: Enzyme A
[11] = 5 mM compound, 30 minutes at 25° C., substrate L-Sorbose, relative to blank incubation
[12] = 5 mM compound, 30 minutes at 25° C., substrate n-Propanol, relative to blank incubation
[13] = 5 mM compound, 30 minutes at 25° C., substrate D-Sorbitol, relative to blank incubation
[14] = 1 mM compound, 30 minutes at 25° C., substrate L-Sorbose, relative to blank incubation
[15] = 1 mM compound, 30 minutes at 25° C., substrate n-Propanol, relative to blank incubation
[16] = 1 mM compound, 30 minutes at 25° C., substrate D-Sorbitol, relative to blank incubation
[17] = 0.5 mM compound, 30 minutes at 25° C., substrate L-Sorbose, relative to blank incubation

| Molecule | Relative remaining activity [1, 11] | Relative remaining activity [2, 12] | Relative remaining activity [3, 13] | Relative remaining activity [4, 11] | also measured |
| --- | --- | --- | --- | --- | --- |
| [Cl-].[Cl-].[Co+2] [CoCl2] |  |  |  |  | Relative remaining activity [1]: 16.6; Relative remaining activity [2]: 7.9; Relative remaining activity [3]: 23.6; Relative remaining activity [4]: 46.9 |
| [Cl][Fe]([Cl])[Cl] [FeCl3] | 7.8 | 0.0 | 0.0 | 44.7 |  |
| [Cl][Fe][Cl] [FeCl2] | 16.6 | 0.0 | 5.9 | 0.0 |  |
| OC[C@H]1OC(O)[C@H](O)[C@@H](O)[C@@H]1O (stereo partly drawn) [glucose] |  |  |  |  | Km [5]: 20 mM |
| [Cl-].[Cl-].[Zn+2] [ZnCl2] | 1.5 | 6.1 | 0.0 | 19.2 |  |
| O=C(O)CN(CCOCCOCCN(CC(=O)O)CC(=O)O)CC(=O)O [EGTA] |  |  |  |  | remaining activity at 10000 µM [6]: 16.7%; remaining activity at 10000 µM [7]: 74% |
| OCC1(O)OC[C@H](O)[C@@H](O)[C@@H]1O (stereo partly drawn) [sorbose, L-sorbose] |  |  |  |  | Ki [8]: 100 mM |
| [Cl][Mn][Cl] [MmCl2] | 0.0 | 45.7 | 0.0 | 0.0 |  |
| [Cl][Cu][Cl] [CuCL2] | 0.0 | 0.0 | 0.0 | 0.0 |  |
| O=S(=O)([O-])[O-].[Ni+2] [NiSO4] | 42.7 | 59.7 | 79.4 | 90.3 |  |
| O=C(O)CI [ICH2COONa] |  |  |  |  | Relative remaining activity [1, 14]: 97.2; Relative remaining activity [2, 15]: 78.3; Relative remaining activity [3, 16]: 100.2; Relative remaining activity [4, 14]: 95.3 |
| [Cl-].[Cl-].[Mg+2] [MgCl2] | 96.3 | 85.3 | 100.0 | 78.8 |  |
| Cl.NO [Hydroxylamine-HCl] |  |  |  |  | Relative remaining activity [1, 17]: 104.6; Relative remaining activity ([2]; 0.5 mM compound, 30 minutes at 25° C., substrate n-Propanol, relative to blank incubation): 98.8; Relative remaining activity ([3]; 0.5 mM compound, 30 minutes at 25° C., substrate D-Sorbitol, relative to blank incubation): 102.1; Relative remaining activity [4, 17]: 97.2 |
| [F-].[Na+] [NaF] |  |  |  |  | Relative remaining activity [1, 14]: 98.2; Relative remaining activity [2, 15]: 97.1; Relative remaining activity [3, 16]: 100.8; Relative remaining activity [4, 14]: 94.9 |
| [Ca+2].[Cl-].[Cl-] [CaCl2] | 98.8 | 95.3 | 102.9 | 123.0 |  |
| OC[C@@H](O)[C@@H](O)[C@H](O)[C@@H](O)CO [sorbitol, D-sorbitol] |  |  |  |  | Km [9]: 61 mM |
| B1 |  |  |  |  | Km [10]: 36 mM mM |
